Experimental data reported in patent publication US9499590B2, “Antibodies against and methods for producing vaccines for respiratory syncytial virus” (MEDIMMUNE, LLC, priority 2009, dated 2016).
Where “and” joins values, the source holds several entries; their conditions need not be identical. Identical values can stand only once.

How the values were obtained:
[1] = molecular target: Numax™; assay: Biacore kinetic analysis of F peptides on captured Numax™; format: binding; conditions: F peptide 100 nM over captured Numax, HBS-EP
Procedure: All studies were performed using Sensor Chip CM5 (Biacore AB, Uppsala, Sweden) which contains a carboxymethyl (CM) dextran matrix and a Biacore®3000 surface plasmon resonance (SPR) biosensor (Biacore AB, Uppsala, Sweden).
Numax™ was captured via a high-affinity interaction between the Fc portion of Numax™ and a goat anti-human IgG(Fc) (KPL, Inc., Gaithersburg, Md.). Goat anti-human IgG(Fc) was covalently attached to the CM dextran matrix using amine coupling chemistry. Two anti-human IgG(Fc)-specific surfaces were created. Numax™ was diluted to 10.9 μg/mL with HBS-EP and flowed for 1 min. across one of the anti-human IgG (Fc) surfaces at a flow rate of 5 μL/min. The other anti-human IgG(Fc) surface was used as a reference surface. F peptide was prepared by dilution in HBS-EP (0.01 M Hepes pH 7.4, 0.15 M NaCl, 3 mM EDTA, 0.005% surfactant P20) to a final concentration of 100 nM. F peptide was injected for 1 min. in a serial-flow manner across the reference surface and the Numax™-specific surface. Dissociation of bound F peptide was monitored for 2 min in the presence of HBS-EP. After this dissociation period, Numax™ and F peptide were removed with a 30-sec injection of 10 mM glycine pH 1.7 (Biacore AB, Uppsala, Sweden). Because of the removal of Numax™, it was necessary to create a new Numax™-specific surface prior to the injection of each F peptide.

[2] = molecular target: MEDI-524 Fab (Homo sapiens, UniProt P01834+P01857); assay: Isothermal titration calorimetry (ITC) of F peptides with MEDI-524 Fab; format: binding; conditions: 18° C., 25 mM His, pH 6.07
Source text: Isothermal Titration calorimetry assays (ITC) have been described (see, for example, Heerklotz H et al., Biophysical Journal, May 1999). Molecular interactions are defined by stoichiometry and a few thermodynamic parameters. All binding reactions are associated with the absorption or generation of heat. Therefore calorimetry is emerging as a premier tool for the characterisation of interactions of biological macromolecules. ITC is the only method that measures equilibrium constants, enthalpy and entropy in one single experiment. If the experiment is performed at different temperatures the important parameter, the heat capacity change, can be determined. ITC has become a standard method for investigating the binding of ligands to receptor molecules. Accordingly, ligands are mixed with receptors, and the subsequent heats of incorporation (or binding) are measured.
To obtain binding constants for MEDI-524 Mab and MEDI-524 Fab fragments with F peptides constructed from F protein sequences, ITC was performed.
For this set of experiments, […] (1.16 μM-148.4 KDa) of MEDI-524 Mab and 0.088 mg/mL (1.88 μM-46.3 KDa) of MEDI-524 Fab, both in 25 mM His, pH 6.07 were used. On the other hand, 250 μl of lmg/mL of the different peptides dissolved in H2O, were provided by ABC. The peptides were then diluted into the appropriate volume of buffer to give a final concentration of 50 μM. The ITC experiments were run at 18° C. with the macromolecule (Mab or Fab) in the cell, by doing ˜26 injections of 10 μL of peptides, spaced 360 sec with constant stirring. The data fitting was accomplished by subtracting the average value of the few last injections as the buffer and unspecific heat of dilution contributions. […] A note apart is the fact that the observed binding capacity (N) increases with the length of the peptide, indicating possibly an extra conformational factor in the binding event. The entropic contribution: For the peptides SEQ ID NOs.24 and 26, the entropic factor seems to be similar; the extra amino acids at the end of the N-terminal seem not to affect greatly the binding parameters. On the other hand, the elongation at the C-terminal seems to decrease slightly the binding enthalpy, the binding constant, as well as the entropic factor. The binding capacity seems to be increased in the cases where the 30-mer peptides were used (SEQ ID Nos. 25 and 26), when compare to the SEQ ID NO.24 peptide, possibly due to the longer extent of the whole peptides. The binding constant seems to be smaller (weaker) for both 30-mer peptides respect to the 26-mer.

[3] = test system: RSV monoclonal antibody resistant mutants (MARMs); assay: Microneutralization assay of RSV monoclonal antibody resistant mutants (MARMs); format: cell-based, respiratory syncytial virus
Procedure: Neutralization assays have also been described (see, for example, Beller et al., 1989, J Virol 63: 2941-2950, which is incorporated herein by reference in its entirety). Briefly RSV is incubated in the presence of serial dilutions of the agent(s) to be tested (e.g., F peptide) for an appropriate period of time. The mixtures of virus-agent(s) are then transferred to cell monolayers and incubated for an appropriate period of time. Cells are subsequently examined microscopically for cytopathology. Microscopic observations can be confirmed by staining with a glutaraldehyde-crystal violet solution. Neutralization can be expressed as the reciprocal of the highest agent dilution which inhibited more then 95% of the viral cytopathic effect present in the control sample (RSV and cells alone)
(§1) Hep-2 cells were infected in 24 well plates with RSV (in some cases, the B9320 RSV strain) in the presence of an anti-RSV monoclonal antibody, such as, for instance, Synagis® (palivizumab) and/or Numax™ (motavizumab) or MEDI-524. The virus was passaged two to three more times in the continued presence of the monoclonal antibody. […] The resulting plaques were purified two times in the presence of the monoclonal antibody. The virus was expanded to produce virus stock in either the presence or absence of the monoclonal antibody. Analysis of susceptibility of the viral mutants to neutralization by Synagis® (palivizumab) and Numax™ (motavizumab) was performed by a microneutralization assay and/or IFA. Finally, the sequence of the mutant F protein was determined by standard methods. […] Antibody contact with residues 262, 268 and 272 appear important.

[4] = test system: RSV B9320 strain mutants; assay: Microneutralization assay of RSV B9320 strain F protein mutants; format: cell-based, respiratory syncytial virus
Source text: as §1

[5] = molecular target: RSV F protein; assay: Biacore kinetic analysis, Numax reference standard; format: binding, respiratory syncytial virus
Source text: BIAcore analysis can measure the kinetic interactions of anti-RSV antibodies with RSV F peptides by surface plasmon resonance using a BIAcore 1000, 2000, or 3000 instrument (Biacore, Uppsala, Sweden). Purified recombinant, C-terminally truncated F protein was covalently coupled to a (1-ethyl-3-[3-dimethylaminopropyl]carbodiimide hydrochloride)/N-hydroxysuccinimide-activated CM5 sensor chip at a low protein density (see Johnsson et al. (1991) Anal. Biochem. 198, 268-277). The unreacted active ester groups were blocked with 1 M ethanolamine. For use as a reference, when the BIAcore 2000 or 3000 instrument was used, a blank surface, containing no antigen, was prepared under identical immobilization conditions. To minimize binding variations caused by different lots of F proteins, most of the antibodies were measured against the same lot of F protein. In several cases when different lots of F proteins were used, their binding to an anti-RSV antibody was used as a reference to make sure that these lots had similar binding characteristics to the lot that is used mainly. A serial 2-fold dilution series of purified antibodies, ranging from 0.2 to 100 nm in HBS/Tween 20 buffer (BIAcore), was injected over the F-protein and reference cell surfaces, which were connected in series. In each measurement, the residual antibody was removed from the sensor chip by a brief pulse of 100 mM HCl. The binding curves were globally fitted to a 1:1 Langmuir binding model using the BIAevaluation program. This algorithm calculates both kon and koff. The apparent equilibrium dissociation constant, Kd, was deduced as the ratio of the two rate constants, koff/kon.

[6] = K272E, or double mutation N262Y + K272Q
[7] = MARM 45, K272Q, selection Numax
[8] = MARM 49-B12, K272N, selection Numax
[9] = MARM 63-B6, N268L + K272I, selection Numax
[10] = MARM 63-H2, K272I, selection Numax
[11] = MARM 65-B10, N262Y + K272Q, selection Numax
[12] = MARM 69-C8, K272E, selection Numax
[13] = MARM #10, K272E + N276Y, selection A4b4
[14] = MARM #13, N262K + K272Q, selection Synagis then A4b4
[15] = MARM B1, K272N, selection Synagis
[16] = MARM B2, K272M, selection Synagis
[17] = MARM B7, K272T, selection Synagis
[18] = MARM B9, K272Q, selection Synagis
[19] = MARM NuMARM3, K272E, selection Numax
[20] = all other mutations indicated at position 272
[21] = K272N, K272Q or K272I, or double N268L + K272I

Sequence of Numax™ (as listed by the source, one chain of several): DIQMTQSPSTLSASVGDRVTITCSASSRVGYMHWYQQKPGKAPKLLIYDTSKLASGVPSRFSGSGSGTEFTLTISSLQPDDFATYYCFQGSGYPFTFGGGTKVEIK
Sequence of MEDI-524 Fab (P01857 with tags, fused parts or gaps limits assumed, other chains not shown): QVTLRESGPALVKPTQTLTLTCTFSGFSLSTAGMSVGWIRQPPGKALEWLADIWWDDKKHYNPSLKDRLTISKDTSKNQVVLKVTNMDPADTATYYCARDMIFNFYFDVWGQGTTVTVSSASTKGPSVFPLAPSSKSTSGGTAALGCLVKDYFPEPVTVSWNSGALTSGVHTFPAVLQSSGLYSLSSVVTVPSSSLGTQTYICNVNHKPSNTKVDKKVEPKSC

| Molecule | Kd [1] | ka [1] | kd [1] | Ka (association constant) [2] | ΔHbinding [2] | ΔSbinding [2] | Neutralization of RSV mutant [3, 6] | Neutraliz by antibody? [3, 7] | Neutraliz by antibody? [3, 8] | Neutraliz by antibody? [3, 9] | Neutraliz by antibody? [3, 10] | Neutraliz by antibody? [3, 11] | Neutraliz by antibody? [3, 12] | Neutraliz by antibody? ([3]; MARM #6, K272E, selection A4b4) | Neutraliz by antibody? [3, 13] | Neutraliz by antibody? [3, 14] | Neutraliz by antibody? [3, 15] | Neutraliz by antibody? [3, 16] | Neutraliz by antibody? [3, 17] | Neutraliz by antibody? [3, 18] | other results |
| --- | --- | --- | --- | --- | --- | --- | --- | --- | --- | --- | --- | --- | --- | --- | --- | --- | --- | --- | --- | --- | --- |
| NSELLSLIHDMPITNDQKKLMSNNVQIVRQ [SEQ ID NO: 25] | 7.23 nM and 5.44 nM | 2.50E+05 and 3.62E+05 | 1.81E−03 and 1.97E−03 | 6.5e+06 M⁻¹ | -10.4 kcal/mol | −4.7 |  |  |  |  |  |  |  |  |  |  |  |  |  |  |  |
| NSELLSLINDMPITNDQKKLMSNN(X-orn)C [SEQ ID NO: 24] | 2.29 nM | 1.06E+05 | 2.42E−04 | 1.3e+07 M⁻¹ | -12.8 kcal/mol | −11.4 |  |  |  |  |  |  |  |  |  |  |  |  |  |  |  |
| NSELLSLINDMPITNDQKKLMSNNC [SEQ ID NO: 27] | 20.4 nM | 2.70E+05 | 5.50E−03 |  |  |  |  |  |  |  |  |  |  |  |  |  |  |  |  |  |  |
| STYMLTNSELLSLIHDMPITNDQKKLMSNN [SEQ ID NO: 26] | 22.7 nM | 2.43E+05 | 5.52E−03 | 7.1e+06 M⁻¹ | -11.4 kcal/mol | −8.1 |  |  |  |  |  |  |  |  |  |  |  |  |  |  |  |
| Synagis ®: humanized RSV monoclonal antibody directed against the F glycoprotein of RSV [reference compound] |  |  |  |  |  |  | longer neutralized RSV | No | No | No | No | No | No | No | No | No | No | No | No | No | Neutraliz by antibody? [3, 19]: No; Neutralization of RSV mutant [3, 20]: eliminate the ability; Neutralization of RSV mutant [4, 21]: lost its ability to neutralize RSV; Neutralization of RSV mutant ([4]; double mutation K272Q + N262K): lost their ability to neutralize |
| Numax ™: enhanced potency RSV-specific monoclonal antibody derived by in vitro affinity maturation of palivizumab (antibody, listed as Chimaera sp., V domains shown, (1)..(120) Humanized VH domain antibody sequence; (1)..(106) Humanized VL domain antibody sequence) VH: QVTLRESGPALVKPTQTLTLTCTFSGFSLSTAGMSVGWIRQPPGKALEWLADIWWDDKKHYNPSLKDRLTISKDTSKNQVVLKVTNMDPADTATYYCARDMIFNFYFDVWGQGTTVTVSS VL: DIQMTQSPSTLSASVGDRVTITCSASSRVGYMHWYQQKPGKAPKLLIYDTFFLDSGVPSRFSGSGSGTEFTLTISSLQPDDFATYYCFQGSGYPFTFGGGTKVEIK |  |  |  |  |  |  | longer neutralized RSV | Yes at higher | Yes at higher | Yes at higher | Yes at higher | No | No | No | No | No | Yes | Yes | Yes | Yes | Neutraliz by antibody? [3, 19]: No; Neutralization of RSV mutant [3, 20]: retain its ability to neutralize; Neutralization of RSV mutant [4, 21]: retain its ability to neutralize RSV at higher concentration; Neutralization of RSV mutant ([4]; double mutation K272Q + N262K): lost their ability to neutralize; Neutralization of RSV mutant ([4]; single mutant K272Q): did not knock out; Kd [5]: 0.004 nM; ka [5]: 4.70E+05; kd [5]: 1.88E−06 |
